# Experimental data as given in ChEMBL document CHEMBL1134418, “Synthesis of tetrocarcin derivatives with specific inhibitory activity towards Bcl-2 functions” (2001).
# Legend:
# [1] = biological target: Apoptosis regulator Bcl-2 (Homo sapiens) (UniProt P10415); experiment: Effect on DEVD cleavage by DEVDase assay with anti-Fas antibody treatment using Bcl-2 overexpressing HeLa cells; 3 fold activation concentration (AC3); format: functional, cell-based
# HeLa [2] = experiment: Evaluated for HeLa cell viability without anti-Fas antibody treatment by XTT assay; 3 fold activation concentration (AC3); format: functional, Homo sapiens
# [3] = biological target: Apoptosis regulator Bcl-2 (Homo sapiens) (UniProt P10415); experiment: Effect on DEVD cleavage by DEVDase assay without anti-Fas antibody using Bcl-2 overexpressing HeLa cells; 3 fold activation concentration (AC3); format: functional, cell-based
# HeLa [4] = experiment: Evaluated for HeLa cell viability with anti-Fas antibody treatment by XTT assay; 3 fold activation concentration (AC3); format: functional, Homo sapiens
# Bacillus subtilis = experiment: Antibacterial activity was evaluated against Bacillus subtilis; format: functional
# Sequence of Apoptosis regulator Bcl-2 (Homo sapiens) (P10415 whole entry): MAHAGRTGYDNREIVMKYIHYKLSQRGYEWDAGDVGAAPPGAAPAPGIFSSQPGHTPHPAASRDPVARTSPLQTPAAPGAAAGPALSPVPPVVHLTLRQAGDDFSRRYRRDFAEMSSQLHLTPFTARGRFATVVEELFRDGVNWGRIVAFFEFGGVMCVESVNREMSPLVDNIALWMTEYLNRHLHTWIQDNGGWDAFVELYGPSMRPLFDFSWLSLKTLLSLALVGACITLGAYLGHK
AC3 [1] [µM],AC3 [3] [µM],MIC (Bacillus subtilis) [µg/mL],SMILES,AC3 (HeLa [2]) [µM],AC3 (HeLa [4]) [µM]
2.2,7.7,< 0.049,COC(=O)NC1[C@H](C)O[C@@H](O[C@H]2C/C=C(\C)[C@@H]3C=C[C@@H]4[C@@H](OC5C[C@H](O[C@@H]6CCC(OC7C[C@H](O)[C@@H](OC8CC[C@@H](O)C(C)O8)C(C)O7)[C@H](C)O6)[C@@H](OC(C)=O)C(C)O5)[C@@H](C)C[C@H](C)[C@H]4[C@]3(C)/C(O)=C3\C(=O)O[C@]4(CC(C=O)=CC(O)[C@H]4/C=C\2C)C3=O)CC1(C)[N+](=O)[O-] (stereo not given in full),4,1.4
> 10,> 10,> 50,COC(=O)NC1[C@H](C)O[C@@H](O[C@H]2C/C=C(\C)[C@@H]3C=C[C@@H]4[C@@H](O)[C@@H](C)C[C@H](C)[C@H]4[C@]3(C)/C(O)=C3\C(=O)O[C@]4(CC(C=O)=C[C@H](O[Si](C)(C)C(C)(C)C)[C@H]4/C=C\2C)C3=O)CC1(C)[N+](=O)[O-] (stereo not given in full),>10,>10
> 10,> 10,> 50,COCCOCCOCC(=O)O[C@@H]1[C@H]2C=C[C@H]3/C(C)=C/C[C@H](O[C@H]4CC(C)([N+](=O)[O-])C(NC(=O)OC)[C@H](C)O4)/C(C)=C\[C@@H]4[C@@H](O)C=C(C=O)C[C@]45OC(O)=C(C(=O)[C@@]3(C)[C@@H]2[C@@H](C)C[C@@H]1C)C5=O (stereo not given in full),>10,>10
> 10,> 10,> 50,COC(=O)NC1[C@H](C)O[C@@H](O[C@H]2C/C=C(\C)[C@@H]3C=C[C@@H]4[C@@H](O[Si](C)(C)C(C)(C)C)[C@@H](C)C[C@H](C)[C@H]4[C@]3(C)/C(O)=C3\C(=O)O[C@]4(CC(C=O)=C[C@H](O[Si](C)(C)C(C)(C)C)[C@H]4/C=C\2C)C3=O)CC1(C)[N+](=O)[O-] (stereo not given in full),>10,>10
9.5,> 10,> 50,COCCOCCOCC(=O)O[C@@H]1[C@H]2C=C[C@H]3/C(C)=C/C[C@H](O[C@H]4CC(C)([N+](=O)[O-])C(NC(=O)OC)[C@H](C)O4)/C(C)=C\[C@@H]4[C@@H](O[Si](C)(C)C(C)(C)C)C=C(C=O)C[C@]45OC(O)=C(C(=O)[C@@]3(C)[C@@H]2[C@@H](C)C[C@@H]1C)C5=O (stereo not given in full),6.4,3.9
5.7,> 10,> 50,COC(=O)NC1[C@H](C)O[C@@H](O[C@H]2C/C=C(\C)[C@@H]3C=C[C@@H]4[C@@H](OC5(C)O[C@@H]6OC(COC(C)=O)[C@@H](OC(C)=O)C(OC(C)=O)[C@@H]6O5)[C@@H](C)C[C@H](C)[C@H]4[C@]3(C)/C(O)=C3\C(=O)O[C@]4(CC(C=O)=C[C@H](OC(C)=O)[C@H]4/C=C\2C)C3=O)CC1(C)[N+](=O)[O-] (stereo not given in full),>10,1.8
> 10,> 10,> 50,COC(=O)NC1[C@H](C)O[C@@H](O[C@H]2C/C=C(\C)[C@@H]3C=C[C@@H]4[C@@H](O)[C@@H](C)C[C@H](C)[C@H]4[C@]3(C)/C(O)=C3\C(=O)O[C@]4(CC(C=O)=C[C@H](O)[C@H]4/C=C\2C)C3=O)CC1(C)[N+](=O)[O-] (stereo not given in full),>10,>10
3.8,4.8,> 50,COC(=O)NC1[C@H](C)O[C@@H](O[C@H]2C/C=C(\C)[C@@H]3C=C[C@@H]4[C@@H](OCc5ccc(OC)cc5)[C@@H](C)C[C@H](C)[C@H]4[C@]3(C)/C(O)=C3\C(=O)O[C@]4(CC(C=O)=C[C@H](OC(C)=O)[C@H]4/C=C\2C)C3=O)CC1(C)[N+](=O)[O-] (stereo not given in full),5.8,7.6
8.4,> 10,> 50,COC(=O)NC1[C@H](C)O[C@@H](O[C@H]2C/C=C(\C)[C@@H]3C=C[C@@H]4[C@@H](O)[C@@H](C)C[C@H](C)[C@H]4[C@]3(C)/C(O)=C3\C(=O)O[C@]4(CC(C=O)=C[C@H](OC(C)=O)[C@H]4/C=C\2C)C3=O)CC1(C)[N+](=O)[O-] (stereo not given in full),>10,>10
3.6,> 10,> 50,COC(=O)NC1[C@H](C)O[C@@H](O[C@H]2C/C=C(\C)[C@@H]3C=C[C@@H]4[C@@H](OC5C=C[C@H](O)[C@H](C)O5)[C@@H](C)C[C@H](C)[C@H]4[C@]3(C)/C(O)=C3\C(=O)O[C@]4(CC(C=O)=C[C@H](OC(C)=O)[C@H]4/C=C\2C)C3=O)CC1(C)[N+](=O)[O-] (stereo not given in full),>10,3.7
3.9,4.9,6.3,COC(=O)NC1[C@H](C)O[C@@H](O[C@H]2C/C=C(\C)[C@@H]3C=C[C@@H]4[C@@H](O[C@H]5CCCCO5)[C@@H](C)C[C@H](C)[C@H]4[C@]3(C)/C(O)=C3\C(=O)O[C@]4(CC(C=O)=C[C@H](OC(C)=O)[C@H]4/C=C\2C)C3=O)CC1(C)[N+](=O)[O-] (stereo not given in full),4.8,3.9
1.3,1.8,> 50,COC(=O)NC1[C@H](C)O[C@@H](O[C@H]2C/C=C(\C)[C@@H]3C=C[C@@H]4[C@@H](O[Si](C)(C)C(C)(C)C)[C@@H](C)C[C@H](C)[C@H]4[C@]3(C)/C(O)=C3\C(=O)O[C@]4(CC(C=O)=C[C@H](O)[C@H]4/C=C\2C)C3=O)CC1(C)[N+](=O)[O-] (stereo not given in full),2,2
2.1,> 10,16.7,COC(=O)NC1[C@H](C)O[C@@H](O[C@H]2C/C=C(\C)[C@@H]3C=C[C@@H]4[C@@H](O[C@@H]5CC(OC(C)=O)C(OC(C)=O)[C@H](C)O5)[C@@H](C)C[C@H](C)[C@H]4[C@]3(C)/C(O)=C3\C(=O)O[C@]4(CC(C=O)=C[C@H](OC(C)=O)[C@H]4/C=C\2C)C3=O)CC1(C)[N+](=O)[O-] (stereo not given in full),>10,1.1

SMILES,AC3 [1] [µM],AC3 [3] [µM],MIC (Bacillus subtilis) [µg/mL],AC3 (HeLa [2]) [µM],AC3 (HeLa [4]) [µM]
COC(=O)NC1[C@H](C)O[C@@H](O[C@H]2C/C=C(\C)[C@@H]3C=C[C@@H]4[C@@H](OC5C[C@H](O[C@@H]6CCC(OC7C[C@H](O)[C@@H](OC8CC[C@@H](O)C(C)O8)C(C)O7)[C@H](C)O6)[C@@H](OC(C)=O)C(C)O5)[C@@H](C)C[C@H](C)[C@H]4[C@]3(C)C(=O)C3=C(OC)[C@@]4(CC(C=O)=CC(O)[C@H]4/C=C\2C)OC3=O)CC1(C)[N+](=O)[O-] (stereo not given in full),1,2.5,5.2,1.5,0.8
CC[Si](CC)(CC)OO[C@H]1C=CC(O[C@@H]2[C@H]3C=C[C@H]4/C(C)=C/C[C@H](O[C@H]5CC(C)([N+](=O)[O-])C(NC(=O)OC)[C@H](C)O5)/C(C)=C\[C@@H]5[C@@H](OC(C)=O)C=C(C=O)C[C@]56OC(O)=C(C(=O)[C@@]4(C)[C@@H]3[C@@H](C)C[C@@H]2C)C6=O)O[C@H]1C (stereo not given in full),4.9,> 10,> 50,>10,4.3
